In US12486251B2 (PHARMABLOCK SCIENCES (NANJING) , INC., priority 2020, dated 2025):

Biological target: CBP recombinant proteins (Homo sapiens (Human), UniProt Q92793)
Assay: Competitive HTRF assay for affinity to CBP recombinant protein
Type: binding
Settings: His-tagged CBP 5 nM, biotin-labeled ligand 50 nM, 1% DMSO
Procedure: The affinity of the compounds synthesized in the present patert to the CBP recombinant proteins was determined by competitive HTRF method. His-tagged cyclic adenosine monophosphate response element binding protein (CREB-binding protein, CBP) was expressed in Escherichia coli system and further purified. CBP biotinylated ligands were all self-made. The BL21 star (DE3) competert cells transfected with His-tagged CBP protein genes at N-terminal were cultured at 37° C. for 16 h until the OD value was between 0.6 and 0.8, induced by 0.5 mM of IPTG and cultured overnight. The supernatant of cell lysate was purified by a Ni-ion affinity column and a Superdex75 molecular sieve column sequentially. The purity of resulting CBP proteins was 95%. The fluorescent donor reagent MAb Anti 6HIS—Eu cryptate Gold (Cisbio #61HI2KLA), the receptor reagent Streptavidin-XL665 (#610SAXLA) and the detection buffer (#62SDBRDD) required for HTRF were obtained from CISBIO BIOASSAYS (Codolet, France). Tris(2-carboxyethyl)phosphine hydrochloride (TCEP), sodium chloride, adenosine triphosphate (ATP), Tween-20, dimethylsulfoxide (DMSO), bovine serum albumin (BSA) and HEPES buffer were obtained from SIGMA at the highest level commercially available.
The general procedure of the competitive HTRF assay for the affinity to CBP recombinant proteins is as follows: 0.05% Tween-20 and 1 mM of TCEP were added immediately before the assay, and the assay was performed in a buffer consisting of 0.1 mg/ml BSA, 50 mM of HEPES and 5 mM of NaCl of pH 7.5. 2.5 μL of compound solution in a determination buffer with 4% DMSO and 5 μL of CBP solution in a determination buffer were added to a white low-volume 384-well microtiter plate, incubated at room temperature for 20 min, and then incubated at room temperature for 40 min by adding 2.5 μL of biotin-labeled ligand solution to the determination buffer. The final concentrations of CBP, biotin-labeled ligand and DMSO were 5 nM, 50 nM and 1%, respectively. Then, 5 μL of MAb Anti 6HIS—Eu cryptate Gold and […] of Streptavidin-XL665 in detection buffers from the manufacturer were added to the mixture, and the mixture was incubated for another 60 min. The final concentration of Streptavidin-XL665 was 12.5 nM, and MAb Anti 6HIS—Eu cryptate Gold was diluted according to the final concentration provided by the supplier. The multimode reader Spark from TECAN (Mannedorf, Switzerland) was used to read the plate to detect the homogeneous time-resolved fluorescence intensity of two groups, in which the excitation wavelength was 320 nm and the emission wavelengths were 665 nm and 620 nm. The IC50 value of the inhibitor was obtained by fitting fluorescence intensity ratios at 665 nm/620 nm with respect to the inhibitor concentration in an S-shaped dose-response curve by using Prism 7 (La Jolla, 15 CA).

CBP recombinant proteins, sequence (Q92793 whole entry): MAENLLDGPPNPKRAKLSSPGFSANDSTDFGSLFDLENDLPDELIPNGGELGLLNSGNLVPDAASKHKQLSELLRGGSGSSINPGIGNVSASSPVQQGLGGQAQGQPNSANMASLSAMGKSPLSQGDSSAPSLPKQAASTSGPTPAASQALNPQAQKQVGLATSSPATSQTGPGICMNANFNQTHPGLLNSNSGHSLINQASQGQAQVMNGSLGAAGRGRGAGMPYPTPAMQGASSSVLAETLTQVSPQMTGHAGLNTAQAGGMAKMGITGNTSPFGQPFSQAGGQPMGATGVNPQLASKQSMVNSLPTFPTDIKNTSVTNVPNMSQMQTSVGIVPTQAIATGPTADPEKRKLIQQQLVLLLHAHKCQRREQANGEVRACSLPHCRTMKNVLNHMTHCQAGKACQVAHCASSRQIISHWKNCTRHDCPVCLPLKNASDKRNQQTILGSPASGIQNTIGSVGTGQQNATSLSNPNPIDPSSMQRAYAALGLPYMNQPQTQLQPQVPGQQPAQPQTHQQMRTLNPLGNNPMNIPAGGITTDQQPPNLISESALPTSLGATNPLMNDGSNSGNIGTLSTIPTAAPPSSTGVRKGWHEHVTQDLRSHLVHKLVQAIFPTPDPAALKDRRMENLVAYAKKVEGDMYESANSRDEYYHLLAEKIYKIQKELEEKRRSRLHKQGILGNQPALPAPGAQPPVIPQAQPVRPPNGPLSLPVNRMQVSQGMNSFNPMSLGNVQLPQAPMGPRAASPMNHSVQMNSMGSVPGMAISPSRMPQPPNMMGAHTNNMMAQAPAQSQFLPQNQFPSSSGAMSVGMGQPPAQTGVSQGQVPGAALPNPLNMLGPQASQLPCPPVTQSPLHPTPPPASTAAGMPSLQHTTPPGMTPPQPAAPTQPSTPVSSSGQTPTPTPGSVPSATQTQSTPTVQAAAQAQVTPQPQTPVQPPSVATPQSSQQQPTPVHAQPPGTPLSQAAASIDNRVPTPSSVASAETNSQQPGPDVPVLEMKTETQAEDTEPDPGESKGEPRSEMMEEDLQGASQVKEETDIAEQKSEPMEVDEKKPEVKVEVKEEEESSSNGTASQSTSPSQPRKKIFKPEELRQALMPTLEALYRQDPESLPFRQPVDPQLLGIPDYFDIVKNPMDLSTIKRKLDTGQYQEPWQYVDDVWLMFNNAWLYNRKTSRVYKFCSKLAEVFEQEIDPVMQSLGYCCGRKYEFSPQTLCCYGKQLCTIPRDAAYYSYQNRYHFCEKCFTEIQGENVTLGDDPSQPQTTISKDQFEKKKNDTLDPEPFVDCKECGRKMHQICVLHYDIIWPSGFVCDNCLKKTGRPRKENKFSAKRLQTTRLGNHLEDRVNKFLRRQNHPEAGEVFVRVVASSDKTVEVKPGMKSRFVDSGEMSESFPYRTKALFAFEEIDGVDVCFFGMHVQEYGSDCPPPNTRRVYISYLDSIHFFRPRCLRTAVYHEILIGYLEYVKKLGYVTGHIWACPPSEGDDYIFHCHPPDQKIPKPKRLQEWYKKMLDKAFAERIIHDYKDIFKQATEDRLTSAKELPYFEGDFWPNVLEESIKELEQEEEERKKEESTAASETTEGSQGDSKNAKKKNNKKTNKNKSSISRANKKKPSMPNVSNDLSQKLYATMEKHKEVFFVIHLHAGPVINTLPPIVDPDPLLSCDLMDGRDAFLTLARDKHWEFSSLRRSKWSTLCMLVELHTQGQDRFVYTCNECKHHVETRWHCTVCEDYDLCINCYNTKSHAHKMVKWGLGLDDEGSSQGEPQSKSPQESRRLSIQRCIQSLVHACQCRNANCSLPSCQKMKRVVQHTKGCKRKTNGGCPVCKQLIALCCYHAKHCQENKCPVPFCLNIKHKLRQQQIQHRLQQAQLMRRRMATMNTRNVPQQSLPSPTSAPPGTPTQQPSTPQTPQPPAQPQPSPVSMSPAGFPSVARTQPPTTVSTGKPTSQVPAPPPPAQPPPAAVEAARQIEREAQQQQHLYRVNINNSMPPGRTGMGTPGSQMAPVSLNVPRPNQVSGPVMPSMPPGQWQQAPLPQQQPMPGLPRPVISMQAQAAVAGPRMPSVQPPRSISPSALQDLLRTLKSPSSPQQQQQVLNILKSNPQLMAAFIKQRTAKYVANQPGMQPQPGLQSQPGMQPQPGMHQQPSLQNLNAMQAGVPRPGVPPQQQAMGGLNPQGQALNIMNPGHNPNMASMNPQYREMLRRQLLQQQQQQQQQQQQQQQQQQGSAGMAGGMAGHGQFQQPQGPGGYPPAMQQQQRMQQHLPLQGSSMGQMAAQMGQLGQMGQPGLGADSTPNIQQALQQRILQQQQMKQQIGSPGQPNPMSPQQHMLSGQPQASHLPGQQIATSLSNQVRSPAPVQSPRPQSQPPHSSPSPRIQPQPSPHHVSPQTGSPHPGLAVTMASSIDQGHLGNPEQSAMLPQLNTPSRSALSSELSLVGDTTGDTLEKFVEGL

SMILES | IC50
CNC(=O)c1cc2cccnc2c(N2CCOc3cc(-c4cnn(C)c4)c(C(F)F)cc32)n1 [Example 65, 8-[6-difluoromethyl-7-(1-methyl-1H-pyrazol-4-yl)-2,3-dihydro-benzo[1,4]oxazin-4-yl]-[1,7]naphthyridine-6-carboxylic acid methylamide] | 12 nM
CNC(=O)c1cc2ccccc2c(N2CCC(NC)c3cc(-c4cnn(C)c4)ccc32)n1 (stereo not shown) [Example 40, 1-[4-methylamino-6-(1-methyl-1H-pyrazol-4-yl)-3,4-dihydro-2H-quinolin-1-yl]-isoquinoline-3-carboxylic acid methylamide] | 62 nM
CNC(=O)c1cc2cc(C3CCCO3)ccc2c(N2CCCc3cc(-c4cnn(C)c4)c(C(F)F)cc32)n1 (stereo not shown) [Example 29, 1-[7-difluoromethyl-6-(1-methyl-1H-pyrazol-4-yl)-3,4-dihydro-2H-quinolin-1-yl]-6-(tetrahydrofuran-2-yl)-isoquinoline-3-carboxylic acid methylamide] | 16 nM
CNC(=O)c1cc2cccnc2c(N2CCCc3cc(-c4cnn(C5CNC5)c4)c(C(F)F)cc32)n1 [Example 53, 8-[6-(1-azetidin-3-yl-1H-pyrazol-4-yl)-7-difluoromethyl-3,4-dihydro-2H-quinolin-1-yl]-[1,7]naphthyridine-6-carboxylic acid methylamide] | 14 nM
CNC(=O)c1cc2cccnc2c(N2CCCc3cc(-c4cnn(C5CN(C)C5)c4)c(C(F)F)cc32)n1 [Example 54, 8-{7-difluoromethyl-6-[1-(1-methyl-azetidin-3-yl)-1H-pyrazol-4-yl]-3,4-dihydro-2H-quinolin-1-yl}-[1,7]naphthyridine-6-carboxylic acid methylamide] | 11 nM
CNC(=O)c1cc2cnccc2c(N2CCCc3cc(-c4cnn(C)c4)c(C(F)F)cc32)n1 [Example 13, 2-[7-difluoro-methyl-6-(1-methyl-1H-pyrazol-4-yl)-3,4-dihydro-2H-quinolin-1-yl]-[2,6] naphthyridine-3-carboxylic acid methylamide] | 21 nM
CNC(=O)c1cc2cccnc2c(N2CCCc3cc(-c4ccnnc4)c(C(F)F)cc32)n1 [Example 39, 8-(7-difluoro-methyl-6-pyrida-zine-4-yl-3,4-dihydro-2H-quinolin-1-yl)-[1,7] naphthyridine-6-carboxylic acid methylamide] | 13 nM
CNC(=O)c1cc2c(c(N3CCCc4cc(-c5cnn(C)c5)c(C(F)F)cc43)n1)COC2 [Example 62, 4-(7-(difluoro-methyl)-6-(1-methyl-1H-pyrazol-4-yl)-3,4-dihydroquinolin-1(2H)-yl)-N-methyl-1,3-dihydrofuran [3,4-c]pyridine-6-carboxamide] | 287 nM
CNC(=O)c1cc2ccncc2c(N2CCCc3cc(-c4cnn(C)c4)c(C(F)F)cc32)n1 [Example 14, 1-[7-difluoro-methyl-6-(1-methyl-1H-pyrazol-4-yl)-3,4-dihydro-2H-quinolin-1-yl]-[2,7] naphthyridine-3-carboxylic acid methylamide] | 15 nM
CNC(=O)c1cc2ccccc2c(N2CCCc3cc(-c4cnn(C5CC5)c4)c(C(F)F)cc32)n1 [Example 33, 1-[6-(1-cyclo-propyl-1H-pyrazol-4-yl)-7-difluoromethyl-3,4-dihydro-2H-quino-lin-1-yl]-iso-quinoline-3-carboxylic acid methylamide] | 44 nM
CNC(=O)c1cc2cccnc2c(N2CCCc3cc(C4=CCN(S(C)(=O)=O)CC4)c(C(F)F)cc32)n1 [Example 45, 8-[7-difluoromethyl-6-(1-methanesulfonyl-1,2,3,6-tetrahydropyridin-4-yl)-3,4-dihydro-2H-quinolin-1-yl]-[1,7]naphthyridine-6-carboxylic acid methylamide] | 8.5 nM
CNC(=O)c1cc2cccnc2c(N2CCCc3cc(-c4cnn(CC#N)c4)c(C(F)F)cc32)n1 [Example 55, 8-[6-(1-cyanomethyl-1H-pyrazol-4-yl)-7-difluoromethyl-3,4-dihydro-2H-quinolin-1-yl]-[1,7]naphthyridine-6-carboxylic acid methylamide] | 15 nM
CNC(=O)c1cc2ccccc2c(N2CCC(O)c3cc(-c4cnn(C)c4)ccc32)n1 (stereo not shown) [Example 41, 1-[4-hydroxy-6-(1-methyl-1H-pyrazol-4-yl)-3,4-dihydro-2H-quinolin-1-yl]isoquinoline-3-carboxylic acid methylamide] | 57 nM
CNC(=O)c1cc2ccccc2c(N2CCCc3cc(-c4cncnc4)c(C(F)F)cc32)n1 [Example 30, 1-(7-difluoromethyl-6-pyrimidine-5-yl-3,4-dihydro-2H-quinolin-1-yl)-isoquinoline-3-carboxylic acid methylamide] | 22 nM
CNC(=O)c1cc2cc(N3CCOC3=O)ccc2c(N2CCCc3cc(-c4cnn(C)c4)c(C(F)F)cc32)n1 [Example 25, 1-[7-difluoromethyl-6-(1-methyl-1H-pyrazol-4-yl)-3,4-dihydro-2H-quinolin-1-yl]-6-(2-oxo-oxazolidin-3-yl)-isoquinoline-3-carboxylic acid methylamide] | 4.2 nM
CNC(=O)c1cc2ccccc2c(N2CCCc3cc(CO)ccc32)n1 [Example 59, 1-(6-hydroxymethyl-3,4-dihydro-2H-quinolin-1-yl)-isoquinoline-3-carboxylic acid methylamide] | 402 nM
CNC(=O)c1cc2ccccc2c(N2CCCc3cc(-c4cnn(CCO)c4)c(C(F)F)cc32)n1 [Example 35] | 16 nM
CNC(=O)c1cc2cnccc2c(N2CCCc3cc(C4CCN(C(C)=O)CC4)c(C(F)F)cc32)n1 [Example 48, 1-[6-(1-acetylpiperidin-4-yl)-7-difluoro-methyl-3,4-dihydro-2H-quinolin-1-yl]-[2,6] naphthyridine-3-carboxylic acid methylamide] | 13 nM
Cn1cc(-c2cc3c(cc2C(F)F)N(c2nc(C(=O)N4CC(O)C4)cc4ccccc24)CCC3)cn1 [Example 8, {1-[7-difluoro-methyl-6-(1-methyl-1H-pyrazol-4-yl)-3,4-dihydro-2H-quinolin-1-yl]-isoquinolin-3-yl}-(3-hydroxy-azetidine-1-yl)methanone] | > 1000 nM
CNC(=O)c1cc2c(c(N3CCCc4cc(-c5cnn(C)c5)c(C(F)F)cc43)n1)CCC2 [Example 61, 1-[7-difluoromethyl-6-(1-methyl-1H-pyrazol-4-yl)-3,4-dihydro-2H-quinolin-1-yl]-6,7-dihydro-5H-[2]pyrazine-3-carboxylic acid methylamide] | 70 nM
CNC(=O)c1cc2ccc(C3=CCOCC3)cc2c(N2CCCc3cc(-c4cnn(C)c4)c(C(F)F)cc32)n1 [Example 16, 1-[7-difluoromethyl-6-(1-methyl-1H-pyrazol-4-yl)-3,4-dihydro-2H-quinolin-1-yl]-7-(3,6-dihydro-2H-pyran-4-yl)-isoquinoline-3-carboxylic acid methylamide] | 13 nM
CNC(=O)c1cc2cccnc2c(N2CCCc3cc(C4=CCN(C)CC4)c(C(F)F)cc32)n1 [Example 44, 8-[7-difluoromethyl-6-(1-methyl-1,2,3,6-tetrahydropyridin-4-yl)-3,4-dihydro-2H-quinolin-1-yl]-[1,7]naphthyridine-6-carboxylic acid methylamide] | 64 nM
CNC(=O)c1cc2ccncc2c(N2CCCc3cc(C4CCN(C(C)=O)CC4)c(C(F)F)cc32)n1 [Example 49, 1-[6-(1-acetylpiperidin-4-yl)-7-difluoro-methyl-3,4-dihydro-2H-quinolin-1-yl]-[2,7] naphthyridine-3-carboxylic acid methylamide] | 12 nM
CNC(=O)c1cc2cc(F)cnc2c(N2CCCc3cc(C4CCN(C(C)=O)CC4)c(C(F)F)cc32)n1 [Example 52, 8-[6-(1-acetylpiperidin-4-yl)-7-difluoro-methyl-3,4-dihydro-2H-quinolin-1-yl]-3-fluoro-[1,7] naphthyridine-6-carboxylic acid methylamide] | 27 nM
CNC(=O)c1cc2ccc(C3=CCOC3)cc2c(N2CCCc3cc(-c4cnn(C)c4)c(C(F)F)cc32)n1 [Example 18, 1-[7-difluoromethyl-6-(1-methyl-1H-pyrazol-4-yl)-3,4-dihydro-2H-quinolin-1-yl]-7-(2,5-dihydro-furan-3-yl)-isoquinoline-3-carboxylic acid methylamide] | 19 nM
